Source: patent US20100104675A1, “Method Of Treating Demyelinating Central Nervous System Diseases” (priority 2008, published 2010)

Key:
[1] = system: PLP139-151-immunized SJL mice (EAE); assay: Actively induced EAE in PLP139-151-immunized SJL/J mice, oral treatment; format: in vivo
[2] = system: rheumatoid arthritis patients; details: cited from earlier work
[3] = Example 2, Table 2, TwHF 12.5 mg/kg/d from day 0, triptolide 10 μg/kg/d from day 8, oral
[4] = Example 2, TwHF 12.5 mg/kg/d, triptolide 10 μg/kg/d, vs control

SMILES | Duration (mean duration of disease) [1, 3] | Group score (EAE clinical score 0-6) [1, 3] | Onset [1, 3] | reduction in the duration of the disease [1, 4] | reduction in the group score [1, 4] | ACR20 ([2]; 24 weeks of the Phase 2 trial) | patients with an ACR20 response ([2]; at 2 weeks)
CC(C)[C@]12O[C@H]1[C@@H]1O[C@]13[C@]1(O[C@H]1C[C@H]1C4=C(CC[C@@]13C)C(=O)OC4)[C@@H]2O [Triptolide, triptolide] | 7.6 ± 1 days | 0.88 ± 0.09 | 13.9 ± 0.95 | 26.2% | 52.5% | – | –
O=C(O)c1cc(/N=N/c2ccc(S(=O)(=O)Nc3ccccn3)cc2)ccc1O [sulfasalazine] | – | – | – | – | – | 21.3% | 9.8%
